# Test results from PubChem BioAssay (NCI).
#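 Five concentrations, 48 hours, 96-well plates. Abbreviation: GI50, concentration required for 50% inhibition of growth. At the TGI there is no net growth.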
# Tests used:
# Test in all cases: inhibition of tumour cell growth, NCI panel, 48 h
# OVCAR-4 ovarian = test system: OVCAR-4 ovarian
# PC-3 prostate = test system: PC-3 prostate
# SF-295 CNS = test system: SF-295 CNS
structure (smiles),measurement,setting,value
COc1ccc(-c2ccc(-c3ccc(C(=N)N)nc3)s2)cc1Cl,GI50,OVCAR-4 ovarian,1740 nM
same,TGI,OVCAR-4 ovarian,3250 nM
same,GI50,PC-3 prostate,1780 nM
same,TGI,PC-3 prostate,3490 nM
same,GI50,SF-295 CNS,1800 nM
same,TGI,SF-295 CNS,3240 nM
